Assay results from patent US20010001101A1, “Phenanthroline derivatives” (Zeneca Limited, priority 1997, published 2001).

Tests used:
dermal incisional wound = experiment: dermal wound healing, rat incisional model; format: in vivo; conditions: compared to control
Procedure: FIG. 6 illustrates the tensile strength on dermal incisional wound on day 7 after oral treatment of Compound 3 and Compound 12.
FIG. 7 illustrates the tensile strength of incisional wound after local injections of Compound 12.
(§1) The effectiveness of the compounds in dermal wound healing was tested using two wound healing models—rat punch model and rat incisional model—as described above.

[1] = test system: scar tissue in the brain following injury; experiment: brain injury model; format: in vivo, rat; conditions: oral gavage twice daily day 0 to 14, day 14
Text: (§2) (f) Various in vivo animal models to determine the applicability of utilizing the compounds of the present invention to treat fibrotic disorders specific to certain cell types or organs. For example, a cardiac fibrosis model in rats, as generally described in Kondo et al., Cardiovascu. Res. 21:248-254 (1987), and Benjamin et al., Circulation Res. 65(3):657-670 (1989), may be used to measure the effectiveness of the compounds of the present invention to inhibit cardiac fibrosis, as well as provide evidence of the regeneration of cardiac cells upon inhibition of fibrotic cell proliferation. Similarly, the left carotid artery injury model, as described generally in Clowes et al., Lab Invest. 49:327-33 (1983), Muller et al., Am. Col. Cardio. 19(2):418 (1992), and Jackson, Trends Cardiovasc. Med. 4:122-130 (1994), may be used to determine the effectiveness of the compounds of the instant invention in vascular remodeling. […]

[2] = test system: kidney fibrosis after Adriamycin injection; experiment: kidney fibrosis rat model (Adriamycin); format: in vivo
Text: (f) Various in vivo animal models to determine the applicability of utilizing the compounds of the present invention to treat fibrotic disorders specific to certain cell types or organs. For example, a cardiac fibrosis model in rats, as generally described in Kondo et al., Cardiovascu. Res. 21:248-254 (1987), and Benjamin et al., Circulation Res. 65(3):657-670 (1989), may be used to measure the effectiveness of the compounds of the present invention to inhibit cardiac fibrosis, as well as provide evidence of the regeneration of cardiac cells upon inhibition of fibrotic cell proliferation. Similarly, the left carotid artery injury model, as described generally in Clowes et al., Lab Invest. 49:327-33 (1983), Muller et al., Am. Col. Cardio. 19(2):418 (1992), and Jackson, Trends Cardiovasc. Med. 4:122-130 (1994), may be used to determine the effectiveness of the compounds of the instant invention in vascular remodeling. Other models, such as in vivo brain injury models (see e.g., Berry et al., Acto Neurochrurgica, Suppl., 32:31-53 (1993), Logan et al., Brain Research 587:216-255 (1992)), in vivo kidney fibrosis models (see e.g., DiDonato et al., Nephron 76(2):192-200 (1997), in vivo post-surgical abdominal adhesions model (see e.g., Cohen et al., J. Trauma 30(12):S149-154 (1990), Stein & Keiser, J. Surg. Res. 11:277 (1971), Diegelman et al., J. Surg. Res. 19:239-43 (1975)) may be used to determine the effectiveness of the compounds of the instant invention to treat fibrotic disorders related to the brain, kidney, abdomen and dermis, as well as provide information related to the treatment of other major organs.
The effectiveness of the compounds of the instant invention to treat kidney fibrosis was determined using a kidney fibrosis rat model, as generally described above. More specifically, male SD rats weighing approximately 200-225 g each were injected intravenously with Adriamycin (Pharmacia, MI) on day 1 and again on day 15. The Adriamycin was dissolved in 0.5 ml sterile physiologic saline and infused slowly into the tail vein to ensure complete delivery and to avoid perivascular tissue destruction of the drug.
Three treatment groups were established following Adriamycin injections. The rats were randomly assigned to receive a twice daily gavage of Compound 12 or control (1% CMC). Five animals from each group were sacrificed on week 6, 8 or 12.

[3] = test system: isoproterenol-induced myocardial fibrosis; experiment: rat isoproterenol-induced myocardial fibrosis model; format: in vivo; conditions: left ventricular function at week 6; 50 mg/kg oral gavage twice daily day 4 to day 11
Text: as §2, with “Col.” for “Col. Cardio. 19(2):418 (1992), and Jackson, Trends Cardiovasc. Med. 4:122-130 (1994), may be used to determine the effectiveness of the compounds of the instant invention in vascular remodeling.”
The effectiveness of one of the compounds of the present invention to inhibit cardiac fibrosis and permit the regeneration of cardiac cells was tested in the cardiac fibrosis model generally described above. […] The compound was administered after suspension in 1% CMC at 50 mg/kg by oral gavage twice daily from day 4 to day 11 and histological data was evaluated on day 11 by general histology (H&E and trichrome) and immunohistochemical staining for proliferating cell nuclear antigen (PCNA). Cardiac function (left ventricular function) was measured by inserting a catheter into the left ventricle for measurement of relaxation and contraction pressure on week 6.

[4] = test system: balloon injured carotid arteries; experiment: rat restenosis model (balloon carotid artery injury); format: in vivo; conditions: 50 mg/kg oral gavage twice daily day 0-14; day 14
Text: as §2
The effectiveness of Compound 12 in vascular remodeling, as determined in a rat restenosis model, was determined by using a left carotid artery injury rat model, as generally described above. […]

[5] = test system: granulation tissue in wound chamber; experiment: in vivo wound chamber model; parameters: species or system rat
Procedure: (e) An in vivo wound chamber model involving the measurement of histological changes in granulation tissue. The test compounds were tested in rats according to the procedures generally described in Schilling et al., Surgery 46(4):702-710 (1959), Hunt et al., Am. J. Surgery 114:302-307 (1967), and Grotendorst et al., J. Clin Inves. 76:2323-2329 (1985). More specifically, stainless wire mesh cylinders were implanted subcutaneously under the back skin of rats (two chambers per animal). The compounds of the present invention were then dissolved in DMSO and injected into each chamber on a daily basis at various concentrations from either day 0-14 or day 7-14. On day 14, the chambers were collected and the granulation tissues contained within the chambers were collected for biochemical (collagen content) or histological evaluation.
Following the in vivo wound chamber model described above, fourteen of the claimed compounds tested to determine the effectiveness of the claimed compounds in inhibiting collagen deposition in the wound chamber.

dermal punch wound = experiment: dermal wound healing, rat punch model; format: in vivo; conditions: compared to control
Procedure: FIG. 5 illustrates wound area after treatment of Compound 3 in the dermal punch model.
as §1

[6] = test system: collagen within the uteri of immature female rats; experiment: in vivo inhibition of prolyl hydroxylation within collagen in uteri of immature female rats (test (d)); conditions: Rattus norvegicus, po; 50 mg/kg orally, compound dosed 2 hours before proline administration
Procedure: (d) An in vivo assay involving the measurement of the inhibition by a test compound of hydroxylation at the 4-trans-position of prolyl residues within collagen within the uteri of immature (20-21 day) female rats. The test compounds were administered either orally or intraperitoneally to the rats in which uterine collagen synthesis had been stimulated by the subcutaneous administration of a solution of oestradiol benzoate (0.5 μg on each of two successive days) in arachis […] oil. The rats were dosed with 5 μCuries of [^14C]-L-proline and the uteri were taken 2 hours after the dosing of the radiolabelled proline and sonicated. Collagen was extracted by treatment of the tissue with water at 120° C. for 1 hour in an autoclave and hydrolysed by treatment with 6N hydrochloric acid for 18 hours at reflux temperature. The proline and 4-hydroxyproline residues were separated by column chromatography on a reversed-phase Spherisorb S5ODS1 column using as eluent a 89.9:10:0.1 v/v mixture of water:isopropanol:trifluoroacetic acid to which 0.3% w/v of sodium dodecylsulphate had been added. The ratio of radioactivity found in each of the proline and 4-hydroxyproline fractions was determined by liquid scintillation counting to allow the measurement of the inhibition of hydroxylation by a test compound.

prolyl 4-hydroxylase = target: T1, prolyl 4-hydroxylase (Gallus gallus, UniProt P16924); experiment: in vitro enzyme assay, cell free, highly purified prolyl 4-hydroxylase (test (a)); format: biochemical
T1 construct: a highly purified preparation of prolyl 4-hydroxylase; from tissue; chick embryos according to the cited method (own knowledge)
T1 sequence (P16924 1-516): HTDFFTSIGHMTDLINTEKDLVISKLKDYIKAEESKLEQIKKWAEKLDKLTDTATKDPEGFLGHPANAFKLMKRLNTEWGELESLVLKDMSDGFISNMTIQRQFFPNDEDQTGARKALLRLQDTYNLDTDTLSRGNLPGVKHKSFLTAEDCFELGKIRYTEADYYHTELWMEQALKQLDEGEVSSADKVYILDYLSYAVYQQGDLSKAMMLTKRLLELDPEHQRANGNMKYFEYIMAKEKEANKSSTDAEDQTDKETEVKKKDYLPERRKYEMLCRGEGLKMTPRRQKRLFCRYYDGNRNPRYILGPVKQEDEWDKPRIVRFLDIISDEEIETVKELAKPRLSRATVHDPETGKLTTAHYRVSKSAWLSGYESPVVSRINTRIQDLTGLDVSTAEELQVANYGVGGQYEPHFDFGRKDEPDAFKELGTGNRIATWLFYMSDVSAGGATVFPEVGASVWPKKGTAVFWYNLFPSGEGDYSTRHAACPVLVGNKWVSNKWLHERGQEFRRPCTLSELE
T1 sequence (P09102 23-515 partner): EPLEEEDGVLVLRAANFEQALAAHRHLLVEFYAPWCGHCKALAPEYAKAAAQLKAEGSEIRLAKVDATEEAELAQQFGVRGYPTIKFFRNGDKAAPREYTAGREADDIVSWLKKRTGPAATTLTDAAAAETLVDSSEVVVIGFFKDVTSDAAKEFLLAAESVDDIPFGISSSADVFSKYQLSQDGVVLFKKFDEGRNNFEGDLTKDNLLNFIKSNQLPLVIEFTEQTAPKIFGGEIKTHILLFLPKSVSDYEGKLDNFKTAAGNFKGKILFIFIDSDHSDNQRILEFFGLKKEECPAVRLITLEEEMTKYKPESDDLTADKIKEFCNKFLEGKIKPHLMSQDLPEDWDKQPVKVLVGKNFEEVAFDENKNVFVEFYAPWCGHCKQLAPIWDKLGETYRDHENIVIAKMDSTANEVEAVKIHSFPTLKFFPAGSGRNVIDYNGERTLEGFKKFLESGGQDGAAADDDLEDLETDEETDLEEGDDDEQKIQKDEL
Procedure: (a) An in vitro enzyme assay system, which assesses the inhibitory properties of a test compound in a cell free system using a highly purified preparation of prolyl 4-hydroxylase. The enzyme preparation was obtained using the method described by N. Kedersha and R. Berg (Collagen Related Research, 1:345 (1981)) and the activity of a test compound was measured using the method described by C. J. Cunliffe, T. J. Franklin and R. Gaskell (Biochem. J., 240:617 (1986)).

[7] = test system: embryonic chick tendon cells; experiment: embryonic chick tendon cells: inhibition of hydroxylation of prolyl residues within collagen (test (b)); format: cell-based; conditions: Gallus gallus, hydroxylation of prolyl residues in collagen
Procedure: (b) An in vitro assay system involving incubating embryonic chick tendon cells in the presence of a test compound and measuring the inhibition of hydroxylation at the 4-position of prolyl residues within the available collagen. The embryonic chick tendon cells were prepared from the leg tendons of 17-day chick embryos using the method of P. Dehm and D. Prockop (Biochem. Biophys Acta, 240:358 (1971)). The cells were incubated in the presence of [^14C]- and [^3H]-labelled L-proline and the extent of hydroxylation at the 4-trans-position of the prolyl residues within the collagen was determined using the procedure described by T. J. Franklin and M. Hitchen (Biochem. J, 261:127-130 (1989)).

3T6 cells = experiment: 3T6 cells: inhibition of hydroxylation of prolyl residues within collagen (test (c)); format: cell-based; conditions: hydroxylation of prolyl residues in collagen
Procedure: (c) An in vitro assay involving incubating cultures of 3T6 cells with a test compound and [^14C]- and [^3H]-labelled L-proline, and measuring the inhibition of hydroxylation at the 4-trans-position of prolyl residues within the available collagen using the procedure described by T. J. Franklin and M. Hitchen (Biochem. J., 261:127-130 (1989)).

| SMILES | tensile strength of wound (dermal incisional wound) | activation of astrocytes ([1]; GFAP staining) | collagen deposition in the scar ([1]; type I collagen staining) | development of renal hypertension ([2]; twice daily gavage, versus control) | development of kidney fibrosis (histology) ([2]; twice daily gavage, versus control (1% CMC)) | Cardiac function ([2]; week 12) | long term toxicity, as measured by mean body weight and bone density ([2]; week 12) | Contraction pressure (dP/dt, mm Hg) [3] [mm Hg] | Relaxation pressure (Min-P, mm Hg) [3] [mm Hg] | development of neointimal formation [4] | response vs control in vivo at 0.05 mg ([5]; Rattus norvegicus, 50 μg dosage, injected into chamber daily, day 7-14 treatment, read-out: Mean Collagen content (% of Control) On Day 14) [%] | apoptotic cell numbers (positive staining of apoptotic cells) ([5]; wound chamber) | rebound of collagen accumulation after discontinuing administration ([5]; wound chamber, at higher doses) | healing time (dermal punch wound) | inhibition at 50 mg/kg [6] [%] | IC50 (prolyl 4-hydroxylase) [nM] | IC50 [7] [nM] | IC50 (3T6 cells) [nM] | melting point [°C] |
| --- | --- | --- | --- | --- | --- | --- | --- | --- | --- | --- | --- | --- | --- | --- | --- | --- | --- | --- | --- |
| O=C(O)C1C=Nc2c(ccc3cccnc23)C1=O (stereo not shown) [Compound 12, 3-carboxy-4-oxo-3,4-dihydro-1,10-phenanthroline] | reduced tensil strength | decreased the activation of actrocytes | reduced collagen deposition in the scar | blocked the development of renal hypertension | prevented the development of kidney fibrosis | improved | not material | 5770 ± 95.1 | 2.7 ± 0.8 | significantly reduce the development of neointimal formation | 80.7 | dose-dependently increased positive staining of apoptotic cells | prevented rebound of collagen accumulation | increased healing time | – | – | – | – | – |
| CCCCN(CC)C(=O)c1cnc2c3c(ccc2c1)C(=O)C(C(=O)O)C=N3 (stereo not shown) [Example 2, 8-(N-butyl-N-ethylcarbamoyl)-3-carboxy-4-oxo-3,4-dihydro-1,10-phenanthroline] | – | – | – | – | – | – | – | – | – | – | – | – | – | – | 46 | 400 | 1200 | 5400 | 236 to 237 |
